In patent US20120328549A1, “OIL COMPOSITIONS” (ANTERIOS, INC., priority 2011, published 2012):

System: Axillary Sweating
Assay: Clinical study of axillary sweating by gravimetric sweat measurement, double-blind versus placebo (water)
Assay type: in vivo, human
Text: The purpose of the study was to determine if Labrafac® Lipophile WL 1349 is biologically active in reducing sweating. […] Some subjects received treatment with the potentially biologically active substance and some subjects received treatment with a placebo, i.e. water. Neither the subject nor the investigator knew which treatment the subject was receiving.
Two weeks after a single treatment, subjects were re-assessed by gravimetric sweat measurement to determine the degree of sweat reduction. A comparison of post-treatment sweat production between the treatment groups was made to determine the degree of sweat reduction by the potentially biologically active substance.
• able to understand and give written informed consent • ages 18-70 years of age • diagnosis of moderate to severe primary axillary hyperhidrosis • Hyperhidrosis Disease Severity Scale score of >3 (the HDSS scale is described below) • >50 mg of sweat production/axilla in 5 minutes as measured gravimetrically • willingness to use only over-the-counter deodorants during the course of the study • willingness to shave underarms prior to each study visit • female subjects must have a negative urine pregnancy test and be non-lactating at the initial (“Baseline”) study site visit • patients should be in good general health as determined by the investigator and free of any disease that may interfere with study evaluations
The sweat production of the subject is measured gravimetrically by the following procedure: • The subject was placed in a room with relatively constant temperature and humidity for at least 30 min. • The subject was placed in a semi-reclining position with the axilla fully exposed and the arm resting comfortably above the head. • The subject's axilla was dried gently with a cotton gauze pad. • The investigator used a forceps to place one filter paper (90 mm diameter) on a balance sensitive to 0.1 mg and recorded its weight. • The investigator used a forceps to place the measured filter paper on the axilla, covered it with plastic and taped the edges of the bag against the subject's skin with hypoallergenic tape to form a seal around the plastic bag. • After 5 minutes, the investigator gently removed the tape and plastic from the subject's axilla and then, using forceps, immediately placed the filter paper onto the scale to record its weight. The scale was then dried and zero balanced. • This measurement was then repeated as described above with the other axilla.
If the subject was eligible for treatment on this basis, the subject was then treated. For treatment, one of the study preparations (0.3 mL/axilla) was applied topically with a gloved finger by the investigator to the subject's skin of the axilla. The preparation was administered in small increments to avoid run-off. The liquid was rubbed-in until vanished. […]
The subject was scheduled for a follow-up office visit two weeks after the treatment. At the follow-up office visit, the subject was questioned as to their compliance with the instructions regarding which medications not to use between treatment and the two week follow-up office visit. […] If the subject was compliant, the subject was re-assessed using the gravimetric sweat measurement procedure.
The study was conducted at multiple study sites and conducted in compliance with Good Clinical Practice standards. […] Two weeks after the treatment, each subject was re-assessed by gravimetric sweat measurement. […]

CCCCCCCCCCCCCC(=O)OC(C)C [Isopropyl Myristate]
greater effectiveness in reducing sweat production than subjects treated with placebo (1.89 mg per axilla topical, based on share of subjects with at least 30% reduction): 191% | conclusion on activity in reducing sweat production (1.89 mg per axilla topical, two weeks after treatment): biologically active in reducing sweat production | percent of subjects with at least a 30% reduction in sweat production compared to Baseline (1.89 mg per axilla topical, two weeks after treatment, control group 29%): 55% | greater reduction in sweat production than the subjects in the control group (1.89 mg per axilla topical, two weeks after treatment, versus placebo (53 mg reduction)): 195% | reduction in sweat production (average) as measured by gravimetric sweat measurement (subjects with primary axillary hyperhidrosis, single topical treatment, 1.89 mg per axilla, two weeks after treatment, 5 minute collection): 103 mg
